Columns and labels:
[1] = target: ANO1 (Homo sapiens (Human), UniProt Q5XXA6); assay: Selective inhibition of ANO1 over ANO2 (Table 1), ANO1 IC50; type: cell-based
[2] = target: T1, ANO2 (Homo sapiens (Human), UniProt Q9NQ90); assay: Selective inhibition of ANO1 over ANO2 (Table 1), ANO2 IC50; type: cell-based
[3] = Stability in mouse plasma (LC-MS/MS); type: in vitro ADME; conditions: for half-life at 5 μM: mouse, 37° C.
[4] = tested on: ANO1 protein in PC-3 cells; assay: Western blot of ANO1 protein level in PC-3 cells expressing ANO1 at high level; type: cell-based; conditions: for decrease of the expression level of ANO1: PC-3 cells
[5] = target: ANO1 (TMEM16A) (Homo sapiens (Human), UniProt Q5XXA6); assay: Short-circuit current (apical membrane current) in FRT cells expressing ANO1; type: cell-based
Description: Specifically, Fischer rat thyroid (FRT) cells expressing ANO1 were differentiated by culturing in DMEM/Ham's F12 medium in Transwell for 5 days and then short-circuit current was measured using an Ussing chamber. Then, a regular HCO^3− solution (120 mM NaCl, 5 mM KCl, 1 mM MgCl2, 2.5 mM HEPES, 1 mM CaCl2, 10 mM glucose, 25 mM NaHCO3) was added to a basolateral bath of the Ussing chamber, and a luminal bath was stabilized for 20 minutes by creating a Cl^− gradient by maintaining at 70 mM Cl^−. Then, after treating with the [Chemical Formula 5] compound at different concentrations (0, 0.003, 0.01, 0.03, 0.1, 0.3, 1.0 μM) and carrying out reaction for 20 minutes, ATP (100 μM) was added and the inhibitory effect for Cl^− secretion was measured through ANO1 activity.

[6] = target: T1, ANO2; assay: Short-circuit current in FRT cells expressing ANO2; type: cell-based
[7] = target: human WT-CFTR (Homo sapiens (Human), UniProt P13569); assay: Short-circuit current in FRT cells expressing CFTR; type: cell-based
[8] = tested on: PC-3 cells highly expressing ANO1; assay: MTS cell viability, PC-3 cells highly expressing ANO1; type: cell-based; conditions: MTS assay, 24 hours
Description: (§1) The cell viability was determined by the MTS assay (mean±S.E., n=4; * P<0.05, ** P<0.01, *** P<0.001).
(§2) 24 hours later, after adding 20 μL of an MTS solution to each well and culturing at 37° C. for 30 minutes under 5% CO2, absorbance was measured at 490 nm using a microplate reader.
(§3) In FIG. 2B, PC-3 cells were treated with the [Chemical Formula 5] compound at different concentrations in the same manner as in FIG. 2A. […] After adding 20 μL of an MTS solution to each well and culturing at 37° C. for 30 minutes under 5% CO2, absorbance was measured at 490 nm using a microplate reader.

[9] = tested on: MCF7 breast cancer cells; assay: MTS cell viability, MCF7 breast cancer cells highly expressing ANO1; type: cell-based; conditions: MTS assay, 24 hours
Description: (§4) The cell viability was determined by the MTS assay (mean±S.E., n=4).
as §2

[10] = tested on: BxPC3 pancreatic cancer cells; assay: MTS cell viability, BxPC3 pancreatic cancer cells highly expressing ANO1; type: cell-based; conditions: MTS assay, 24 hours
Description: as §4, §2

[11] = tested on: smooth muscle of the mouse ileum; assay: Contraction of smooth muscle using mouse ileal section
[12] = tested on: PC-3 cells not expressing ANO1; assay: MTS cell viability, PC-3 cells not expressing ANO1; type: cell-based; conditions: MTS assay, 24 hours
Description: as §1, §2, §3

T1 sequence (Q9NQ90 other isoform, or with tags, fused parts or gaps, species assumed): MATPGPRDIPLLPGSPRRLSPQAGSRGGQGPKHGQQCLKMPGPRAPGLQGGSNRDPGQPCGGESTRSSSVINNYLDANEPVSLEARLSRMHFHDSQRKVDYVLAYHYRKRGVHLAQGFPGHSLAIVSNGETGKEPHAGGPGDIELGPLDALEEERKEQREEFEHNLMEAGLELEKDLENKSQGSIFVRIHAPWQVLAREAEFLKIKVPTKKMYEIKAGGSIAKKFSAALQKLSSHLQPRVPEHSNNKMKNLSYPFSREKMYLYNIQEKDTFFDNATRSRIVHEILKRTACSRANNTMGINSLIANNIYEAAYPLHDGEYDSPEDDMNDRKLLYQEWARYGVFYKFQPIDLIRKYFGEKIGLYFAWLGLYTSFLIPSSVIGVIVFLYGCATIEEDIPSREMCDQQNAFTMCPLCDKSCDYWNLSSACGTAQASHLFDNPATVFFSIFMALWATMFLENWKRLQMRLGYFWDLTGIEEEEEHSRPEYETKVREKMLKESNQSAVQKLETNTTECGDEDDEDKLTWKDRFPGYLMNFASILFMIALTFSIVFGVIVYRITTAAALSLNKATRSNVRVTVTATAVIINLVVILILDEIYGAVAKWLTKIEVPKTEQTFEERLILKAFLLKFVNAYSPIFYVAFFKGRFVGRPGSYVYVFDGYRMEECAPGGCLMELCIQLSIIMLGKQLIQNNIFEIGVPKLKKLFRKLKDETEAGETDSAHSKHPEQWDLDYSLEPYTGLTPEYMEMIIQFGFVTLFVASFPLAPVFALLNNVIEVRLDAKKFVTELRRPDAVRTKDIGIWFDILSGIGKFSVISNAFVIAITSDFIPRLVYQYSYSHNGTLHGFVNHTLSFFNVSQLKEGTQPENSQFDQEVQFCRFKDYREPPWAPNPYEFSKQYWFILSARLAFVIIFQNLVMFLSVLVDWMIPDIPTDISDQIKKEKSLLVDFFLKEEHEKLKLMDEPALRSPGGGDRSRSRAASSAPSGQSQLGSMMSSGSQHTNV
ANO1, sequence (Q5XXA6 whole entry, species assumed): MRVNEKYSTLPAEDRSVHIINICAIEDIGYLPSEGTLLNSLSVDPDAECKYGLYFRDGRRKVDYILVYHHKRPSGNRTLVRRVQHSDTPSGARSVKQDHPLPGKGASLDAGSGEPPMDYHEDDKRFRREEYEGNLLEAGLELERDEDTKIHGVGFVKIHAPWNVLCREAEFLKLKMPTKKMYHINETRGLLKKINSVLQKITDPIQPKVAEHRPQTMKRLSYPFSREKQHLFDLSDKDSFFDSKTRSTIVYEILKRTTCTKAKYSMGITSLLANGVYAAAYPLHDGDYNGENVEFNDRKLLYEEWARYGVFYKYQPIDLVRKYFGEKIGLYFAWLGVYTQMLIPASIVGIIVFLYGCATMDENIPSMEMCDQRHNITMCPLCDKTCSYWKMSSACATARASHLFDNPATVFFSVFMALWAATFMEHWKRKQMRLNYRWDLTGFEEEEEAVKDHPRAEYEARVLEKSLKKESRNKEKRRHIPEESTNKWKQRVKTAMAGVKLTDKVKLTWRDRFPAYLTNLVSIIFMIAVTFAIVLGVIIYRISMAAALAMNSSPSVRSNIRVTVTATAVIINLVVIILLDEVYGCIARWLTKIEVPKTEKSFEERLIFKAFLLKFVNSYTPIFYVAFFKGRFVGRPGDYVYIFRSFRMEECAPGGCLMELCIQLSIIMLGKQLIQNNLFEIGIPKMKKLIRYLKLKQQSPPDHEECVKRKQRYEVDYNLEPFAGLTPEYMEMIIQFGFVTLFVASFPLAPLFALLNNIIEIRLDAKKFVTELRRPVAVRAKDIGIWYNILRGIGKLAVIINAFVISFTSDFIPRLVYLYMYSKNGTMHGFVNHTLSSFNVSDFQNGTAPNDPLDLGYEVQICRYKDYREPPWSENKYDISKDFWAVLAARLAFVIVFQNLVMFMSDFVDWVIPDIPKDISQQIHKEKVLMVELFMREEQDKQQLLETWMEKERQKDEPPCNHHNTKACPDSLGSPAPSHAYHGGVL
human WT-CFTR, sequence (P13569 whole entry): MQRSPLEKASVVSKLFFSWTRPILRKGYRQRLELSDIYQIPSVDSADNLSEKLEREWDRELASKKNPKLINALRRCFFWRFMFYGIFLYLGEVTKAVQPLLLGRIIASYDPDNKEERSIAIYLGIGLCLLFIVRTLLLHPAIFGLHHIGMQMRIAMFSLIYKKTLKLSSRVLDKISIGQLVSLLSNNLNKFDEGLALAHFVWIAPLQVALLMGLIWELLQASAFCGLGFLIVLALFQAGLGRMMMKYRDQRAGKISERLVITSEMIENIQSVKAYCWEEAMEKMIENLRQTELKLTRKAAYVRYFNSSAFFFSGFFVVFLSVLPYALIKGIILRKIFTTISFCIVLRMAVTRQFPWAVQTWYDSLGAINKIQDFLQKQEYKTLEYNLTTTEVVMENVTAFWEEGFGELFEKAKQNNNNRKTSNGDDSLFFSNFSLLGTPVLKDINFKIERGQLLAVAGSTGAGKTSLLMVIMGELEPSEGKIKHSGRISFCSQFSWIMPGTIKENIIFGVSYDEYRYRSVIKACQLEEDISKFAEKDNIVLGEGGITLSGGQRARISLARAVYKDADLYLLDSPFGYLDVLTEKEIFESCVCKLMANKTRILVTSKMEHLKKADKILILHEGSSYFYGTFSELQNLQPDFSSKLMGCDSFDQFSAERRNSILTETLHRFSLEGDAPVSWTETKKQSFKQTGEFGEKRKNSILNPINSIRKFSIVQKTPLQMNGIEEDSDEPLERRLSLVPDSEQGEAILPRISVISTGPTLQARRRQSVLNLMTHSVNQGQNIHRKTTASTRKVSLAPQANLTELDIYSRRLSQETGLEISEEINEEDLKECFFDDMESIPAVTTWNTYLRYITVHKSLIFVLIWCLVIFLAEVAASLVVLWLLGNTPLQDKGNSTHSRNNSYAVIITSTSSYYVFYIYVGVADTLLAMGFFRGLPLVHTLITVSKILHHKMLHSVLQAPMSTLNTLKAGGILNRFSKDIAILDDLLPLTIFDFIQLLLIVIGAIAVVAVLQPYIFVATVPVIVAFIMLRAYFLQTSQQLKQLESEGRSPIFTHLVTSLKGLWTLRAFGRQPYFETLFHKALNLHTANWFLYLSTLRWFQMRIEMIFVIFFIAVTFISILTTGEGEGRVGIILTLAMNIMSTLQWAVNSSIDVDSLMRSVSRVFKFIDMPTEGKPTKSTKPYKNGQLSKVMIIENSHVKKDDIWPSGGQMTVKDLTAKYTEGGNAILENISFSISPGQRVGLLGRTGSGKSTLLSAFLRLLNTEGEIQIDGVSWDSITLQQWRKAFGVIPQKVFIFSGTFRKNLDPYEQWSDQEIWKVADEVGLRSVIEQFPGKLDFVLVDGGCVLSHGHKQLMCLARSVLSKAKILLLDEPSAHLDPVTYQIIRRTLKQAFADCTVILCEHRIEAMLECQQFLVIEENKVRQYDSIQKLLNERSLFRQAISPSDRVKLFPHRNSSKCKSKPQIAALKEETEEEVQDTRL
ANO1 (TMEM16A), sequence (Q5XXA6 whole entry, species assumed): as the sequence (Q5XXA6 whole entry, species assumed) above

| Compound | IC50 [1] [µM] | IC50 [2] [µM] | also measured |
| --- | --- | --- | --- |
| COc1ccccc1CNC(=O)COc1ccc(Cl)cc1C [Example 11] | 20.6 ± 0.02 | 13.1 ± 0.07 | – |
| COC(=O)c1sc(NC(=O)COc2ccc(Cl)cc2C)nc1C [Comparative Example 16] | > 100 | – | – |
| COc1ccccc1/C=N/NC(=O)c1cc2cc(Cl)ccc2o1 [Comparative Example 1] | > 100 | > 100 | – |
| COc1ccccc1/C=N/NC(=O)COc1ccc(Cl)cc1C [Ani9, reference compound] | – | – | plasma stability [3]: low; half-life at 5 μM [3]: 0.533 h |
| Cc1cc(Cl)ccc1OCc1nnc(-c2ccccc2F)o1 [Example 4] | 21.2 ± 0.17 | > 100 | – |
| Cc1cc(Cl)ccc1OCC(=O)N/N=C/c1ccccn1 [Example 10] | 31.3 ± 0.57 | > 100 | – |
| Cc1cc(Cl)ccc1OCC(=O)Nc1nc2ccccc2s1 [Comparative Example 15] | > 100 | > 100 | – |
| Cc1cc(Cl)ccc1OCC(=O)Nc1nc2cc(Cl)ccc2o1 [Example 13] | 14.2 ± 0.07 | – | reduction of ANO1 expression level as compared to Ani9 ([4]; 10 μM): ~2.05 times; decrease of the expression level of ANO1 ([4]; 10 μM): 48.8±2.9% |
| COc1ccccc1-c1nnc(-c2cc3cc(Cl)ccc3o2)o1 [Comparative Example 2] | > 100 | > 100 | – |
| CCOC(=O)C(F)Oc1ccccc1/C=N/NC(=O)COc1ccc(Cl)cc1C (stereo not shown) [Example 7] | 15.7 ± 0.01 | 59.4 ± 0.45 | – |
| Cc1cc(Cl)ccc1OCC(=O)N/N=C1\CCOc2ccccc21 [Comparative Example 14] | > 100 | – | – |
| Cc1cc(Cl)ccc1OCc1nnc(-c2ccccc2C(F)(F)F)o1 [Comparative Example 7] | > 100 | > 100 | – |
| Cc1cc(Cl)ccc1OCc1nnc(-c2cccc(F)c2)o1 [Comparative Example 6] | > 100 | > 100 | – |
| COc1cccc(CNC(=O)COc2ccc(Cl)cc2C)c1 [Example 12] | 53.7 ± 0.05 | > 100 | – |
| Cc1cc(Cl)ccc1OCC(=O)N/N=C/c1ccccc1OC(F)(F)F [Example 1] | 0.021 ± 0.005 | – | ANO1 inhibitory activity (in words) [1]: strongest ANO1 inhibitory activity; inhibition of ANO1 activity as compared to Ani9 [5]: ≥ 4 times; IC50 ([5]; FRT cells expressing ANO1, short-circuit current, ATP 100 μM): 0.022 µM; inhibition at 100 µM [6]: 17.1%; inhibition of the activity of CFTR ([7]; 100 μM, forskolin-activated CFTR): did not inhibit; effect on cell viability of PC-3 cells highly expressing ANO1 [8]: selectively inhibited the growth of the PC-3 cells highly expressing ANO1 in a concentration-dependent manner; plasma stability [3]: higher stability in the mouse plasma than Ani9; half-life at 5 μM [3]: 1.73 h; reduction of ANO1 expression level as compared to Ani9 ([4]; 3 μM): about 11.5 times; decrease of the expression level of ANO1 ([4]; 3 μM): 59.8±4.6%; reduction of ANO1 expression level as compared to Ani9 ([4]; 10 μM): ~2.28 times; decrease of the expression level of ANO1 ([4]; 10 μM): 66.5±4.7%; effect on cell viability of MCF7 breast cancer cells highly expressing ANO1 [9]: selectively inhibited the growth; effect on cell viability of BxPC3 pancreatic cancer cells highly expressing ANO1 [10]: selectively inhibited the growth; contraction frequency of smooth muscle [11]: no effect; contraction of smooth muscle of the mouse ileum [11]: strongly inhibited; decrease of maximum contraction intensity of smooth muscle ([11]; 300 nM): 53.3%; decrease of maximum contraction intensity of smooth muscle ([11]; 1 μM): 68.8% |
| Cc1cc(Cl)ccc1OCc1nnc(-c2ccccn2)o1 [Comparative Example 11] | > 100 | – | – |
| Cc1cc(Cl)ccc1OC(F)(F)C(=O)N/N=C/c1ccccc1OC(F)(F)F [Comparative Example 19] | > 100 | > 100 | – |
| Cc1cc(Cl)ccc1OCc1nnc(-c2ccco2)o1 [Example 9] | 63.8 ± 0.02 | > 100 | – |

| Compound | IC50 [1] [µM] | IC50 [2] [µM] | also measured |
| --- | --- | --- | --- |
| Cc1cc(Cl)ccc1OC(C)(C)C(=O)N/N=C/c1ccccc1OC(F)(F)F [Comparative Example 18] | – | > 100 | – |
| Cc1cc(Cl)ccc1OCC(=O)N/N=C1/C(=O)N(C)c2ccccc21 [Comparative Example 13] | > 100 | – | – |
| Cc1cc(Cl)ccc1OCC(=O)N/N=C/c1cccc(OC(F)(F)F)c1 [Comparative Example 9] | > 100 | – | ANO1 inhibitory activity (in words) [1]: not to inhibit ANO1; effect on cell viability of PC-3 cells highly expressing ANO1 [8]: insignificant effect; effect on cell viability of PC3 cells not expressing ANO1 [12]: insignificant effect; effect on cell viability of MCF7 breast cancer cells highly expressing ANO1 [9]: insignificant effect; effect on cell viability of BxPC3 pancreatic cancer cells highly expressing ANO1 [10]: insignificant effect |
| Cc1cc(Cl)ccc1OCc1nnc(-c2ccccc2OC(F)(F)F)o1 [Comparative Example 8] | > 100 | – | – |
| COc1ccccc1-c1nnc(COc2ccc(Cl)cc2C)o1 [Example 3] | 19.4 ± 0.01 | 12.4 ± 0.05 | – |
| Cc1cc(Cl)ccc1OC(C)C(=O)N/N=C/c1ccccc1OC(F)(F)F (stereo not shown) [Comparative Example 17] | > 100 | – | – |
| Cc1cc(Cl)ccc1OCC(=O)N/N=C/c1cccc(F)c1 [Comparative Example 5] | > 100 | – | – |
| Cc1cc(Cl)ccc1OCC(=O)N/N=C/c1ccco1 [Example 8] | 25.7 ± 0.01 | – | – |
| Cc1cc(Cl)ccc1OCC(=O)N/N=C/c1ccccc1C(F)(F)F [Example 5] | 0.21 ± 0.04 | – | – |
| C/C(=N\NC(=O)COc1ccc(Cl)cc1C)c1ccccc1OC(F)(F)F [Example 6] | 0.3 ± 0.02 | > 100 | ANO1 inhibitory activity (in words) [1]: slightly weaker inhibitory activity than the compound of Example 1; reduction of ANO1 expression level as compared to Ani9 ([4]; 10 μM): about 1.21 times; decrease of the expression level of ANO1 ([4]; 10 μM): 28.9±0.9% |
| CFTRinh-172 [reference compound] | – | – | inhibition of CFTR ([7]; 10 μM): completely inhibited |
| Cc1cc(Cl)ccc1OCc1nnc(-c2cccc(OC(F)(F)F)c2)o1 [Comparative Example 10] | > 100 | – | – |
| COc1ccccc1CNNC(=O)COc1ccc(Cl)cc1C [Example 2] | 10.7 ± 0.14 | > 100 | – |
| COc1cccc(-c2nnc(COc3ccc(Cl)cc3C)o2)c1 [Comparative Example 4] | > 100 | > 100 | – |
| COc1cccc(/C=N/NC(=O)COc2ccc(Cl)cc2C)c1 [Comparative Example 3] | > 100 | – | – |
| CCOC(=O)c1csc(NC(=O)COc2ccc(Cl)cc2C)n1 [Example 14] | 14.8 ± 0.01 | > 100 | – |
| CCOC(=O)c1cc2ccccn2c1/C=N/NC(=O)COc1ccc(Cl)cc1C [Comparative Example 12] | > 100 | > 100 | – |

Reference: patent US11274074B2, “Pharmaceutical composition for ANO1 antagonist with anticancer activity” (INDUSTRY-ACADEMIC COOPERATION FOUNDATION, YONSEI UNIVERSITY, priority 2018, dated 2022)
